Source: the supplement of paper PMC10307832

Tests used:
Experiment in all cases: relative viability (nuclei count vs DMSO), 5 days (fraction); higher = more cells survive
NCI-H358 = test system: NCI-H358
In short: (§1)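 For relative viability, nuclei counts in treated wells were divided by those in vehicle wells. Lung cancer cell lines had been pin-tool dosed in 1536-well plates the day after seeding and cultured for 5 days, then fixed and stained in one step (final 0.05% Triton X-100, 1% formaldehyde, 1 ug/ml Hoechst) and imaged at 4×. Doses were one drug alone or a fixed anchor-drug dose plus five library-drug doses (not always all listed) in √10 steps, and values are duplicate-plate medians.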

NCI-H1915 = test system: NCI-H1915
In short: as §1

LC-2-ad = test system: LC-2-ad
In short: as §1

SW 1573 = test system: SW 1573
In short: as §1

PC-3 [JPC-3] = test system: PC-3 [JPC-3]
In short: as §1

RERF-LC-KJ = test system: RERF-LC-KJ
In short: as §1

HOP-62 = test system: HOP-62
In short: as §1

NCI-H1792 = test system: NCI-H1792
In short: as §1

LXF-289 = test system: LXF-289
In short: as §1

SK-LU-1 = test system: SK-LU-1
In short: as §1

HCC-15 = test system: HCC-15
In short: as §1

NCI-H2347 = test system: NCI-H2347
In short: as §1

NCI-H2126 = test system: NCI-H2126
In short: as §1

NCI-H1755 = test system: NCI-H1755
In short: as §1

HCC-78 = test system: HCC-78
In short: as §1

NCI-H647 = test system: NCI-H647
In short: as §1

A-427 = test system: A-427
In short: as §1

NCI-H1734 = test system: NCI-H1734
In short: as §1

NCI-H522 = test system: NCI-H522
In short: as §1

NCI-H1975 = test system: NCI-H1975
In short: as §1

NCI-H2342 = test system: NCI-H2342
In short: as §1

`COc1nc(C)cnc1NS(=O)(=O)c1cccnc1-c1ccc(-c2nnco2)cc1` [Zibotentan] + Nc1ncn([C@H]2C[C@H](O)[C@@H](CO)O2)c(=O)n1 [Decitabine] (partner 2 µM) gave a relative viability (NCI-H358; first compound 0.08 µM) of 0.196, a relative viability (NCI-H358; first compound 0.253 µM) of 0.139 and a relative viability (NCI-H358; first compound 2.53 µM) of 0.222. For the same molecule, the relative viability (NCI-H1915; first compound 0.08 µM) was 0.248, the relative viability (NCI-H1915; first compound 0.253 µM) was 0.262 and the relative viability (NCI-H1915; first compound 0.8 µM) was 0.27. The relative viability (NCI-H1915; first compound 2.53 µM) was 0.257, the relative viability (LC-2-ad; first compound 0.08 µM) was 0.66 and the relative viability (LC-2-ad; first compound 0.253 µM) was 0.816. It also gave a relative viability (LC-2-ad; first compound 0.8 µM) of 0.718, a relative viability (LC-2-ad; first compound 2.53 µM) of 0.781 and a relative viability (SW 1573; first compound 0.08 µM) of 0.611. The relative viability (SW 1573; first compound 0.8 µM) was 0.702, the relative viability (SW 1573; first compound 2.53 µM) was 0.613 and the relative viability (PC-3 [JPC-3]; first compound 0.08 µM) was 0.836. For the same molecule, the relative viability (PC-3 [JPC-3]; first compound 0.253 µM) was 0.777, the relative viability (PC-3 [JPC-3]; first compound 0.8 µM) was 0.85 and the relative viability (PC-3 [JPC-3]; first compound 2.53 µM) was 0.851. It also gave a relative viability (RERF-LC-KJ; first compound 0.08 µM) of 0.699, a relative viability (RERF-LC-KJ; first compound 0.253 µM) of 0.558 and a relative viability (RERF-LC-KJ; first compound 0.8 µM) of 0.708. It also gave a relative viability (RERF-LC-KJ; first compound 2.53 µM) of 0.634, a relative viability (HOP-62; first compound 0.08 µM) of 0.169 and a relative viability (HOP-62; first compound 0.253 µM) of 0.19. It also gave a relative viability (HOP-62; first compound 0.8 µM) of 0.209, a relative viability (HOP-62; first compound 2.53 µM) of 0.207 and a relative viability (NCI-H1792; first compound 0.08 µM) of 0.491. It also gave a relative viability (NCI-H1792; first compound 0.253 µM) of 0.549, a relative viability (NCI-H1792; first compound 0.8 µM) of 0.547 and a relative viability (NCI-H1792; first compound 2.53 µM) of 0.575. For the same molecule, the relative viability (LXF-289; first compound 0.08 µM) was 0.357, the relative viability (LXF-289; first compound 0.253 µM) was 0.346 and the relative viability (LXF-289; first compound 0.8 µM) was 0.409. For the same molecule, the relative viability (LXF-289; first compound 2.53 µM) was 0.367, the relative viability (SK-LU-1; first compound 0.08 µM) was 0.805 and the relative viability (SK-LU-1; first compound 0.253 µM) was 0.688. It also gave a relative viability (SK-LU-1; first compound 0.8 µM) of 0.722, a relative viability (SK-LU-1; first compound 2.53 µM) of 0.642 and a relative viability (HCC-15; first compound 0.08 µM) of 0.607. The relative viability (HCC-15; first compound 0.253 µM) was 0.538, the relative viability (HCC-15; first compound 0.8 µM) was 0.727 and the relative viability (HCC-15; first compound 2.53 µM) was 0.696. The relative viability (NCI-H2347; first compound 0.08 µM) was 0.583, the relative viability (NCI-H2347; first compound 0.253 µM) was 0.586 and the relative viability (NCI-H2347; first compound 0.8 µM) was 0.744. The relative viability (NCI-H2347; first compound 2.53 µM) was 0.604, the relative viability (NCI-H2126; first compound 0.08 µM) was 0.617 and the relative viability (NCI-H2126; first compound 0.253 µM) was 0.602. For the same molecule, the relative viability (NCI-H2126; first compound 0.8 µM) was 0.599, the relative viability (NCI-H2126; first compound 2.53 µM) was 0.551 and the relative viability (NCI-H1755; first compound 0.08 µM) was 0.737. The relative viability (NCI-H1755; first compound 0.253 µM) was 0.616, the relative viability (NCI-H1755; first compound 0.8 µM) was 0.8 and the relative viability (NCI-H1755; first compound 2.53 µM) was 0.732. For the same molecule, the relative viability (HCC-78; first compound 0.08 µM) was 0.795, the relative viability (HCC-78; first compound 0.253 µM) was 0.564 and the relative viability (HCC-78; first compound 0.8 µM) was 0.68. It also gave a relative viability (HCC-78; first compound 2.53 µM) of 0.656, a relative viability (NCI-H647; first compound 0.08 µM) of 0.438 and a relative viability (NCI-H647; first compound 0.253 µM) of 0.341. It also gave a relative viability (NCI-H647; first compound 0.8 µM) of 0.448, a relative viability (NCI-H647; first compound 2.53 µM) of 0.509 and a relative viability (A-427; first compound 0.08 µM) of 0.537. It also gave a relative viability (A-427; first compound 0.253 µM) of 0.542, a relative viability (A-427; first compound 0.8 µM) of 0.613 and a relative viability (A-427; first compound 2.53 µM) of 0.582. For the same molecule, the relative viability (NCI-H1734; first compound 0.08 µM) was 0.486, the relative viability (NCI-H1734; first compound 0.253 µM) was 0.496 and the relative viability (NCI-H1734; first compound 0.8 µM) was 0.513. For the same molecule, the relative viability (NCI-H1734; first compound 2.53 µM) was 0.541, the relative viability (NCI-H522; first compound 0.08 µM) was 0.677 and the relative viability (NCI-H522; first compound 0.253 µM) was 0.5. It also gave a relative viability (NCI-H522; first compound 0.8 µM) of 0.718, a relative viability (NCI-H522; first compound 2.53 µM) of 0.756 and a relative viability (NCI-H1975; first compound 0.08 µM) of 0.565. It also gave a relative viability (NCI-H1975; first compound 0.253 µM) of 0.384, a relative viability (NCI-H1975; first compound 0.8 µM) of 0.403 and a relative viability (NCI-H1975; first compound 2.53 µM) of 0.377. The relative viability (NCI-H2342; first compound 0.08 µM) was 0.659, the relative viability (NCI-H2342; first compound 0.253 µM) was 0.776 and the relative viability (NCI-H2342; first compound 0.8 µM) was 0.707. The relative viability (NCI-H2342; first compound 2.53 µM) was 0.71.
